Assays:
Assay in all cases: relative viability (nuclei count vs DMSO), 5 days (fraction); higher = more cells survive
[1] = compound: C1=CC2=NC=CN=C2C=C1/C=C/3\C(=O)NC(=O)S3
How it was run: (§1)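 Acceptance criteria were a control CV below 25% and at least one doubling per plate. Lung cancer cell lines in 1536-well plates got five library-drug doses (not always all listed) √10 apart by pinning and were left 5 days with no medium change. Viability divides treated-well nuclei by vehicle-well nuclei and is the median across plates. Nuclei were counted by MetaXpress from 4× Hoechst images.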

BGJ398 = compound: CCN1CCN(c2ccc(Nc3cc(N(C)C(=O)Nc4c(Cl)c(OC)cc(OC)c4Cl)ncn3)cc2)CC1 [BGJ398]
How it was run: as §1

BGJ398 + Bortezomib = compound: CCN1CCN(c2ccc(Nc3cc(N(C)C(=O)Nc4c(Cl)c(OC)cc(OC)c4Cl)ncn3)cc2)CC1 [BGJ398] + CC(C)C[C@H](NC(=O)[C@H](Cc1ccccc1)NC(=O)c1cnccn1)B(O)O [Bortezomib] (partner 0.002 µM)
How it was run: (§2)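 Lung cancer cell lines in 1536-well plates were dosed by pin tool the day after seeding, either with one drug alone or with a fixed anchor-drug dose plus five library-drug doses (not always all listed) in √10 steps. After 5 days, cells were fixed and their nuclei stained in one step (final 0.05% Triton X-100, 1% formaldehyde, 1 ug/ml Hoechst), then counted on 4× images. Relative viability is the nuclei count in treated wells divided by that in vehicle wells. Values are medians of duplicate plates.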

[2] = compound: C1=CC2=NC=CN=C2C=C1/C=C/3\C(=O)NC(=O)S3 + Cc1nc(NC(=O)N2CCC[C@H]2C(N)=O)sc1-c1ccnc(C(C)(C)C(F)(F)F)c1 [Alpelisib] (partner 2 µM)
How it was run: as §2

Cell Line	relative viability ([1]; 0.02 µM)	relative viability ([1]; 0.06325 µM)	relative viability ([1]; 0.2 µM)	relative viability ([1]; 0.6325 µM)	relative viability ([1]; 2 µM)	relative viability (BGJ398; 0.01 µM)	relative viability (BGJ398; 0.03162 µM)	relative viability (BGJ398; 0.1 µM)	relative viability (BGJ398; 0.3162 µM)	relative viability (BGJ398; 1 µM)	relative viability (BGJ398 + Bortezomib; first compound 0.01 µM)	relative viability (BGJ398 + Bortezomib; first compound 0.03162 µM)	relative viability (BGJ398 + Bortezomib; first compound 0.1 µM)	relative viability (BGJ398 + Bortezomib; first compound 0.3162 µM)	relative viability (BGJ398 + Bortezomib; first compound 1 µM)	relative viability ([2]; first compound 0.02 µM)	relative viability ([2]; first compound 0.06325 µM)	relative viability ([2]; first compound 0.2 µM)	relative viability ([2]; first compound 0.6325 µM)	relative viability ([2]; first compound 2 µM)
NCI-H1651	0.959	0.876	0.994	0.877	0.884	0.921	0.96	1.08	0.936	0.87	0.909	0.932	1.05	1	0.911	0.888	1.03	0.986	0.937	0.996
NCI-H1703	1.09	1.33	0.942	0.864	0.736	0.872	1.04	1.02	0.806	0.967	0.451	0.467	0.253	0.261	0.457	0.362	0.306	0.296	0.386	0.267
Calu-6	0.971	1.04	1.03	0.989	1	0.986	0.988	1.05	1.02	1.02	0.923	0.963	1.01	1.07	0.982	1.02	1.11	1.04	0.902	0.845
EBC-1	0.913	1.04	0.957	1.05	1.01	0.975	0.981	1.09	1.03	1.14	0.616	0.614	0.589	0.53	0.526	0.819	1.05	0.788	0.849	0.854
SW 1573	0.984	1.26	1.09	0.948	0.79	0.975	0.934	0.94	0.893	0.999	0.948	1.05	0.909	0.964	0.91	0.54	0.852	0.791	0.636	0.616
A-427	0.963	1.14	1.08	0.918	0.975	0.985	0.979	0.967	0.815	0.753	0.984	0.991	1.12	0.774	0.743	1.06	1.08	1.1	1.07	1.12
NCI-H2347	0.971	0.913	1	1	0.918	0.957	1.09	1.06	1.04	0.94	0.737	0.835	0.9	0.88	0.784	1.02	1.09	1.08	1.07	1.02
NCI-H1355	0.821	0.984	1.05	0.923	0.875	0.943	0.961	1.02	0.971	0.795	1.05	1.27	1.2	1.15	0.603	0.67	0.776	0.864	0.773	0.751
PC-3 [JPC-3]	0.991	1.07	1.06	1	1.04	1.05	–	1.05	0.695	0.919	0.851	–	0.914	0.804	0.765	1.07	1.12	0.994	0.987	1.03
NCI-H2228	0.898	1.06	1.22	0.898	0.842	0.814	1.18	1.38	0.876	0.963	1.34	1.08	0.782	0.942	0.925	0.814	1.12	0.802	0.674	0.664
HOP-62	0.929	0.945	1.06	1	0.943	0.983	1.07	1.07	0.982	1.02	0.726	1.05	1.12	0.585	0.788	0.898	1.02	1.11	1.09	1.05
HARA	0.84	0.992	0.945	0.778	0.955	1.02	0.788	0.821	0.719	0.602	1.15	1.05	1.13	1.08	0.978	0.749	0.696	0.844	0.806	0.859
NCI-H838	0.96	0.957	1.02	0.821	0.776	0.845	0.938	0.984	0.8	0.742	0.636	0.921	0.655	0.776	0.5	0.989	1.16	1	1.04	0.913
NCI-H1755	0.887	0.949	0.986	0.925	0.93	0.933	1.06	1.05	0.963	1.01	1	0.872	0.975	0.921	0.875	0.878	0.824	0.941	0.888	0.896
HCC-78	0.9	0.845	1.04	0.979	0.507	0.881	0.911	0.933	1.02	0.86	0.373	0.59	0.468	0.472	0.455	0.287	0.304	0.378	0.335	0.294
IA-LM	0.943	1.09	0.926	0.997	0.99	0.918	1.05	0.974	0.875	0.901	0.741	0.928	0.905	0.822	0.788	0.586	0.713	0.64	0.749	0.764

Cell Line	relative viability ([1]; 0.02 µM)	relative viability ([1]; 0.06325 µM)	relative viability ([1]; 0.2 µM)	relative viability ([1]; 0.6325 µM)	relative viability ([1]; 2 µM)	relative viability (BGJ398; 0.01 µM)	relative viability (BGJ398; 0.03162 µM)	relative viability (BGJ398; 0.1 µM)	relative viability (BGJ398; 0.3162 µM)	relative viability (BGJ398; 1 µM)	relative viability (BGJ398 + Bortezomib; first compound 0.01 µM)	relative viability (BGJ398 + Bortezomib; first compound 0.03162 µM)	relative viability (BGJ398 + Bortezomib; first compound 0.1 µM)	relative viability (BGJ398 + Bortezomib; first compound 0.3162 µM)	relative viability (BGJ398 + Bortezomib; first compound 1 µM)	relative viability ([2]; first compound 0.02 µM)	relative viability ([2]; first compound 0.06325 µM)	relative viability ([2]; first compound 0.2 µM)	relative viability ([2]; first compound 0.6325 µM)	relative viability ([2]; first compound 2 µM)
NCI-H322M	0.935	0.969	0.995	0.916	0.739	1.07	0.754	0.948	0.815	1.02	1.14	0.989	1.21	1.21	1.24	0.835	0.713	0.74	0.852	0.67
NCI-H3122	1	1.04	0.975	0.949	0.984	0.934	1.01	1.04	0.977	1.01	1.04	0.998	1	1.02	1.09	0.737	0.854	0.873	0.766	0.602
COR-L23	0.967	1.15	1.02	0.938	0.976	0.96	1.06	1.12	1.02	1.09	0.942	0.975	1.08	0.855	0.99	0.736	0.896	0.83	0.72	0.696
NCI-H2087	0.918	0.925	1.05	0.951	0.926	1.01	1.01	0.966	1.08	1.09	0.725	0.699	0.806	0.848	0.602	0.965	1.3	1.09	1.11	1.2
LC-2-ad	0.973	0.987	1.11	0.917	0.758	0.977	1.03	0.977	0.994	0.906	0.968	1.12	1.07	1.01	1.09	0.785	0.975	0.832	0.812	0.686
NCI-H1915	0.98	1.1	1.07	0.966	0.966	0.971	1.02	0.995	0.965	0.939	0.952	0.972	0.969	0.977	0.864	1.02	1.17	1.03	1.04	1.06
NCI-H2023	0.94	0.966	1.02	0.886	0.773	0.872	0.998	0.997	0.977	1.01	0.966	1.07	0.978	0.883	1.12	0.57	0.609	0.587	0.606	0.511
COR-L 105	0.904	1.05	1.01	0.912	0.741	0.875	0.744	0.961	0.83	0.875	0.717	0.514	0.703	0.792	0.73	1.22	0.861	0.901	1.02	0.751
RERF-LC-KJ	0.908	1.02	1	0.948	0.841	1.04	1.05	1.06	0.987	1.05	1.06	1.17	1.2	1.31	1.18	0.633	0.816	0.832	0.786	0.788
LXF-289	0.996	0.95	0.956	0.97	1.01	0.949	0.948	0.944	0.875	0.942	0.951	0.918	0.918	0.888	0.896	0.999	1.01	1.06	0.984	1.07
PC-14	1.02	1.02	1.01	0.982	0.989	1.01	0.732	1.04	0.766	0.93	0.952	0.85	0.791	0.868	0.878	0.959	0.973	0.932	0.894	0.863
NCI-H650	0.951	1.04	1.07	0.914	0.529	0.883	1.21	1.02	1.03	0.665	0.777	0.909	0.845	0.837	0.627	1.08	1.04	1.06	1.1	1.02
NCI-H1666	0.944	0.962	0.966	0.971	0.893	1	1.03	0.966	0.98	0.8	0.88	0.774	0.793	0.816	0.629	0.918	1.14	0.863	0.94	0.851
NCI-H2085	0.952	1.01	1	0.983	0.892	0.951	1.01	1.01	0.938	1.03	1.02	1.07	1.02	0.983	1.15	0.991	1.01	1.04	0.885	1.02
NCI-H1734	0.94	–	1.07	0.916	0.635	0.895	1.02	1.06	0.93	1.05	0.95	0.889	0.933	0.805	0.825	0.707	–	0.741	0.622	0.54
